The source of these data is ChEMBL document CHEMBL1125915, “Novel alkaloids from the tropical plant Ancistrocladus abbreviatus inhibit cell killing by HIV-1 and HIV-2” (J Med Chem, 1991).

The subject of assay [1] is CEM-SS. Kind of assay: Compound tested for inhibition of syncytium-forming units (SFU) in HIV-infected CEM-SS cells; Inhibited. The class given is functional, cell-based. The conditions noted are these: Homo sapiens.
Assay [2] deals with Human immunodeficiency virus type 1 reverse transcriptase (Human immunodeficiency virus 1) (UniProt Q72547). Briefly: Compound tested for inhibition of RT (reverse transcriptase) in HIV-infected CEM-SS cells; Inhibited. It is filed as cell-based.
Assay [3] has as its system CEM-SS. Kind of assay: Compound tested for inhibition of P24 (P24 antigen) in HIV-infected CEM-SS cells; Inhibited. The conditions noted are these: Homo sapiens. The class given is functional, cell-based.
In assay [4] the test system is CEM-SS. Briefly: Compound tested for cytotoxic effect on uninfected CEM-SS human lymphoblastoid target cell. It is filed as functional, cell-based.
Assay [5] relates to CEM-SS. Kind of assay: Compound tested for inhibition of the cytopathic effects of HIV-1 upon CEM-SShuman lymphoblastoid target cells in vitro. It is filed as functional, cell-based. The conditions noted are these: Homo sapiens.

Regarding `COc1cc(C)cc2c(-c3c(O)cc(O)c4c3C[C@H](C)N[C@H]4C)cc(-c3cc(-c4c(O)cc(O)c5c4C[C@H](C)N[C@H]5C)c4cc(C)cc(OC)c4c3O)c(O)c12` (stereo in doubt; 1) [listing 1 of 2 here], the inhibition result in assay [1], in assay [2] and in assay [3] was “Inhibited” throughout.
As to `COc1cc(C)cc2c(-c3c(O)cc(O)c4c3C[C@H](C)N[C@H]4C)cc(-c3cc(-c4c(O)cc(O)c5c4C[C@H](C)N[C@H]5C)c4cc(C)cc(OC)c4c3O)c(O)c12` (stereo in doubt; 2), the inhibition result in assay [1], in assay [2] and in assay [3] was “Inhibited” in each case.
`COc1cc(C)cc2c(-c3c(O)cc(O)c4c3C[C@H](C)N[C@H]4C)cc(-c3cc(-c4c(O)cc(O)c5c4C[C@H](C)N[C@H]5C)c4cc(C)cc(OC)c4c3O)c(O)c12` (stereo in doubt; 1) [listing 2 of 2 here] came in with a 50% inhibitory concentration (IC50) in assay [4] of 200 µM. This molecule also yielded a half-maximal effective concentration (EC50) in assay [5] of 20 µM.

A word on the IC50: it is the concentration at which inhibition is half-maximal. A higher IC50 goes with weaker potency in that assay. Broadly, the EC50 is the concentration that produces a half-maximal response.
